Data on two compounds can be found in ChEMBL document CHEMBL5726331, “Pyridinone and pyrimidinone derivatives as factor Xia” (2017).

The target in the assay is Coagulation factor XI (Homo sapiens, UniProt P03951). Briefly: Enzyme Activity Assay: Human Factor XIa (Haematologic Technologies Inc.) activity was measured at an enzyme concentration of 0.1 U/mL in 150 mM NaCl, 5 mM KCl, 1 mg/mL PEG6000, 50 mM HEPES-NaOH (pH7.4) with 300 μM S-2366 (pyroGlu-Pro-Arg-pNA, Chromogenix).
Sequence of Coagulation factor XI (P03951 19-387 limits assumed): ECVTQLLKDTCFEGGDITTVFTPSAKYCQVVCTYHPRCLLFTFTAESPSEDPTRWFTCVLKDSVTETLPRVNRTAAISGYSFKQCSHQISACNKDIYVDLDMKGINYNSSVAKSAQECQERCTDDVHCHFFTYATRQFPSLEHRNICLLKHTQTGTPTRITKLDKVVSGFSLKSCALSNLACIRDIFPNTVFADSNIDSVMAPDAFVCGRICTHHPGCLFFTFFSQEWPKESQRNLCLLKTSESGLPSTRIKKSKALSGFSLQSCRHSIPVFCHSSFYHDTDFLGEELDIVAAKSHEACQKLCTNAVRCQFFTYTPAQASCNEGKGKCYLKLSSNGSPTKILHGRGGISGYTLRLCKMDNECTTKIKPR
Sequence of Coagulation factor XI (P03951 388-625 limits assumed): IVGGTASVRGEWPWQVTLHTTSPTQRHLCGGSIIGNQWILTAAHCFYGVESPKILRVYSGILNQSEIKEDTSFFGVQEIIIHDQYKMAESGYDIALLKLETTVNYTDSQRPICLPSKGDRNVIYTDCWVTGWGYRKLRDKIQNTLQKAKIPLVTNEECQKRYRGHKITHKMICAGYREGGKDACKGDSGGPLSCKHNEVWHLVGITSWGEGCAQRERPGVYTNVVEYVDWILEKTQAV

`COC(=O)Nc1ccc(-c2[nH]c(CNC(=O)/C=C/c3cc(Cl)ccc3-n3cnnn3)nc2Cl)cc1` came in with an IC50 of 130 nM.

The compound `COC(=O)Nc1ccc(-c2[nH]c([C@H](C)NC(=O)/C=C/c3cc(Cl)ccc3-n3cnnn3)nc2Cl)cc1` returned an IC50 of 40 nM.

By IC50 is commonly meant the midpoint of a concentration-inhibition curve. A high value points to lower potency.
